≈ marks a conversion by molar mass, not a printed value. Where two headings read alike, the source gives them in different places.

What all share (type): cell-based
The test system of test [1] is Vancomycin-resistant Enterococcus faecalis. As to the kind of experiment: MIC microdilution, VR E. faecalis. Conditions: read-out: MIC Vancomycin-resistant Enterococcus faecalis. As to the method: (§1) Minimum inhibitory concentrations (MICs) were determined using the microdilution method in 96-well format plates. Each of the compounds of Examples was dissolved in dimethyl sulfoxide to a concentration of 2 mg/mL and stored at 4° C. until used. They were diluted in Mueller-Hinton Broth (MHB) and used for MIC determination. The range of concentrations tested was […] final concentration using a two-fold dilution system. Plates were incubated at 37° C. and MIC were recorded after 24 hours of incubation for bacteria.
(§2) Linezolid and vancomycin were used as standard antibiotics, respectively.
(Dilution methods test growth across graded concentrations, often in twofold steps.)

Test [2] deals with Vancomycin-resistant Enterococcus faecium. As to the kind of experiment: MIC microdilution, VR E. faecium. To be noted: read-out: MIC Vancomycin-resistant Enterococcus faecium. Here is the method: as §1, §2
Test [3] concerns Streptococcus Pneumoniae Pen NS. As to the kind of experiment: MIC microdilution, S. Pneumoniae Pen NS. To be noted: read-out: MIC Streptococcus Pneumoniae Pen NS. As to the method: as §1, §2
Test [4] has as its system Streptococcus Pneumoniae Pen S. The experiment in a line: MIC microdilution, S. Pneumoniae Pen S. Conditions: read-out: MIC Streptococcus Pneumoniae Pen S. As to the method:
as §1, §2

Another test deals with Streptococcus pyogenes. As to the kind of experiment: MIC microdilution, S. pyogenes. Conditions: read-out: MIC Streptococcus pyogenes. Here is the method:
as §1, §2

Where [5] appears, read: microdilution, Mueller-Hinton Broth, 37° C., 24 hours.

Regarding `CC(C)(C)[C@H](NC(=O)[C@H](CC1CCCC1)CN(O)C=O)C(=O)N1CCC(NCc2ccc(C#N)cc2)CC1` [Example 3, (R)-N-{(S)-1-[4-(4-Cyano-benzylamino)-piperidine-1-carbonyl]-2,2-dimethyl-propyl}-2-cyclopentylmethyl-3-(formyl-hydroxy-amino)-propionamide], the MIC in test [1] (setting [5]) was determined as 0.8 µg/mL (≈ 1.52 µM); in test [2] (setting [5]), 0.4 µg/mL (≈ 0.761 µM); in test [3] (setting [5]), 0.4 µg/mL (≈ 0.761 µM); in test [4] (setting [5]), 0.1 µg/mL (≈ 0.19 µM); in the test with Streptococcus pyogenes (setting [5]), 0.2 µg/mL (≈ 0.38 µM).

Consider `CC(C)(C)[C@H](NC(=O)[C@H](CC1CCCC1)CN(O)C=O)C(=O)N1CCC(NCc2ccc(F)cc2)CC1` [Example 4, (R)-2-Cyclopentylmethyl-N-{(S)-1-[4-(4-fluoro-benzylamino)-piperidine-1-carbonyl]-2,2-dimethyl-propyl}-3-(formyl-hydroxy-amino)-propionamide], for which the MIC in test [1] (setting [5]) amounted to 3.1 µg/mL (≈ 5.98 µM); in test [2] (setting [5]), 0.4 µg/mL (≈ 0.771 µM); in test [3] (setting [5]), 0.4 µg/mL (≈ 0.771 µM); in test [4] (setting [5]) it was 0.2 µg/mL (≈ 0.386 µM); in the test with Streptococcus pyogenes (setting [5]) it was 0.4 µg/mL (≈ 0.771 µM).

For `COC(=O)c1ccc(CNC2CCN(C(=O)[C@@H](NC(=O)[C@H](CC3CCCC3)CN(O)C=O)C(C)(C)C)CC2)cc1` [Example 7, 4-[(1-{(S)-2-[(R)-2-Cyclopentylmethyl-3-(formyl-hydroxy-amino)-propionylamino]-3,3-dimethyl-butyryl}-piperidin-4-ylamino)-methyl]-benzoic acid methyl ester], the MIC in test [1] (setting [5]) came to 6.3 µg/mL (≈ 11.3 µM); in test [2] (setting [5]), 3.1 µg/mL (≈ 5.55 µM); in test [3] (setting [5]), 1.6 µg/mL (≈ 2.86 µM); in test [4] (setting [5]), 0.4 µg/mL (≈ 0.716 µM); with Streptococcus pyogenes (setting [5]), 0.8 µg/mL (≈ 1.43 µM).

Turning to `CC(C)(C)[C@H](NC(=O)[C@H](CC1CCCC1)CN(O)C=O)C(=O)N1CCC(NCc2ccccn2)CC1` [Example 9, (R)-2-Cyclopentylmethyl-N-((S)-2,2-dimethyl-1-{4-[(pyridine-2-ylmethyl)-amino]-piperidine-1-carbonyl}-propyl)-3-(formyl-hydroxy-amino)-propionamide], the MIC in test [1] (setting [5]) came out at 12.5 µg/mL (≈ 24.9 µM); in test [2] (setting [5]) it was 12.5 µg/mL (≈ 24.9 µM); in test [3] (setting [5]) it was 1.6 µg/mL (≈ 3.19 µM); in test [4] (setting [5]) it was 1.6 µg/mL (≈ 3.19 µM); in the test on Streptococcus pyogenes (setting [5]), 0.8 µg/mL (≈ 1.59 µM).

As for `COc1ccc(CNC2CCN(C(=O)[C@@H](NC(=O)[C@H](CC3CCCC3)CN(O)C=O)C(C)(C)C)CC2)c(OC)c1` [Example 12, (R)-2-Cyclopentylmethyl-N-{(S)-1-[4-(2,4-dimethoxy-benzylamino)-piperidine-1-carbonyl]-2,2-dimethyl-propyl}-3-(formyl-hydroxy-amino)-propionamide], the MIC was found to be 6.3 µg/mL (≈ 11.2 µM) in test [1] (setting [5]); 3.1 µg/mL (≈ 5.53 µM) in test [2] (setting [5]); 0.8 µg/mL (≈ 1.43 µM) in test [3] (setting [5]); 0.2 µg/mL (≈ 0.357 µM) in test [4] (setting [5]); 0.2 µg/mL (≈ 0.357 µM) in the test on Streptococcus pyogenes (setting [5]).

For `CC(C)(C)[C@H](NC(=O)[C@H](CC1CCCC1)CN(O)C=O)C(=O)N1CCC(NCc2cc(F)c(F)cc2F)CC1` [Example 14, (R)-2-Cyclopentylmethyl-N-{(S)-2,2-dimethyl-1-[4-(2,4,5-trifluoro-benzylamino)-piperidine-1-carbonyl]-propyl}-3-(formyl-hydroxy-amino)-propionamide], the MIC in test [1] (setting [5]) worked out at 1.6 µg/mL (≈ 2.88 µM); in test [2] (setting [5]), 0.2 µg/mL (≈ 0.361 µM); in test [3] (setting [5]), 0.4 µg/mL (≈ 0.721 µM); in test [4] (setting [5]), 0.1 µg/mL (≈ 0.18 µM); in the test on Streptococcus pyogenes (setting [5]), 0.1 µg/mL (≈ 0.18 µM).

As for `CC(C)(C)[C@H](NC(=O)[C@H](CC1CCCC1)CN(O)C=O)C(=O)N1CCC(Nc2ccccc2)CC1` [Example 15, (R)-2-Cyclopentylmethyl-N-[(S)-2,2-dimethyl-1-(4-phenylamino-piperidine-1-carbonyl)-propyl]-3-(formyl-hydroxy-amino)-propionamide], the MIC in test [1] (24 h) came to 1.6 µg/mL (≈ 3.29 µM); in test [2] (24 h) it was 0.4 µg/mL (≈ 0.822 µM); in test [3] (24 h), 0.4 µg/mL (≈ 0.822 µM); in test [4] (24 h), 0.1 µg/mL (≈ 0.205 µM); in the test with Streptococcus pyogenes (24 h) it was 0.1 µg/mL (≈ 0.205 µM).

Broadly, the MIC is the lowest concentration that inhibits growth of the organism.

(Values after patent publication US20100168421A1, “A NEW PEPTIDE DEFORMYLASE INHIBITOR COMPOUND AND MANUFACTURING PROCESS THEREOF” (priority 2007, published 2010).)
